Holding throughout (experiment): DTP human tumour cell line panel, 48 h
The subject of experiment [1] is LOX IMVI melanoma.
For experiment [2], the system named is IGROV1 ovarian.
For experiment [3], the system named is U251 CNS.
The subject of experiment [4] is RXF 393 renal.
In experiment [5] the test system is SF-268 CNS.
Experiment [6] relates to MOLT-4 leukemia.
The test system of experiment [7] is UO-31 renal.
The test system of experiment [8] is CCRF-CEM leukemia.
Experiment [9] concerns NCI/ADR-RES ovarian.
The test system of experiment [10] is OVCAR-4 ovarian.

Several values for one entry are separate records, joined by “and”; a condition that tells them apart may be missing. Identical values can stand only once.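 Cells were grown in 96-well plates and exposed to each compound for 48 hours at five concentrations; endpoints were interpolated linearly between bracketing concentrations, or set to the highest concentration if not reached. Here, GI50 denotes the concentration required for 50% inhibition of growth. TGI: total growth inhibition.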

In general, GI50 refers to the concentration that inhibits growth by half. One may read the TGI as the concentration giving total growth inhibition. The low end stands for more potent growth arrest, the high end for less potent growth arrest.

On to `O=S(=O)(c1ccc(NC(=S)NCc2cccnc2)cc1)N1CCCCC1`, for which the GI50 in experiment [1] was 6.93 µM; in experiment [2], 23.3 µM; in [3] it was 1.82 µM; in [4] it was 72.4 µM; in experiment [5], 17.2 µM; in [6] it was 40.3 µM. In addition, the GI50 in [7] is 21.5 µM; in experiment [8] it was 0.823 µM; in experiment [9], 8.36 µM; in [10], 23 µM. In addition, the TGI in experiment [1], in experiment [2], in experiment [3], in experiment [4], in [5] and in [6] was above 100 µM each time. Further, the TGI in [7], in [8], in [9] and in [10] was above 100 µM in each case.

For `CC1=CC(=O)c2c(O)cccc2C1=O`, the TGI in [1] was 3.32 µM; in experiment [2] it was 3.33 µM; in [3], 20.4 µM; in [4] it was 3.07 µM; in experiment [5] it was 3.96 µM; in experiment [6], 0.762 µM. The TGI in experiment [7] was 2.98 µM; in [8], 0.621 µM; in [9] it was 3.16 µM; in experiment [10], 3.26 µM.

As for `Cn1c(=O)c2[nH]c(/N=N/N3CCN(CCO)CC3)nc2n(C)c1=O`, the TGI in [1], in experiment [2], in experiment [3], in experiment [4], in [5] and in experiment [6] was above 100 µM in each case. For the same compound, the TGI in [7], in experiment [8], in experiment [9] and in [10] was above 100 µM throughout.

Consider `c1ccc2[nH]c(-c3ccc(N4CCN(c5ccc(-c6nc7ccccc7[nH]6)cc5)CC4)cc3)nc2c1`, for which the GI50 in experiment [1] was above 100 µM; in experiment [2], 69.6 µM; in experiment [3] it was 41.3 µM; in experiment [4] it was above 100 µM; in experiment [5] it was above 100 µM; in experiment [6], 34.9 µM. For the same compound, the GI50 in [7] is above 100 µM; in [8], 44.6 µM; in [9], above 100 µM; in experiment [10] it was above 100 µM. The TGI in experiment [1], in [2], in experiment [3], in experiment [4], in [5] and in experiment [6] was above 100 µM each time. Besides, the TGI in experiment [7], in experiment [8], in experiment [9] and in experiment [10] was above 100 µM in each case.

In the case of `Fc1ccc2[nH]cc(Cc3c[nH]c4ccc(F)cc34)c2c1`, the GI50 in experiment [1] is 16 µM; in experiment [2], 16.9 µM; in [3], 19.7 µM; in experiment [4], 18.2 µM; in [5] it was 17.5 µM; in experiment [6], 1.97 µM. The GI50 is 13.7 µM in [7], 16.7 µM in [8], 17.2 µM in experiment [9] and 32 µM in [10]. The TGI was found to be 47.1 µM in [1]; 41.6 µM in experiment [2]; 44.8 µM in experiment [3]; 42.8 µM in [4]; 77.6 µM in experiment [5]; 22.1 µM in experiment [6]. Further, the TGI in experiment [7] is 33.7 µM; in experiment [8], 64.5 µM; in experiment [9], 90 µM; in [10], above 100 µM.

Take `C=C(C)[C@@H]1CC[C@]2(C(=O)NCCCN)CC[C@]3(C)[C@H](CC[C@@H]4[C@@]5(C)CC[C@H](O)C(C)(C)[C@@H]5CC[C@]43C)[C@@H]12`: the GI50 in experiment [1] was 25.5 µM; in experiment [2] it was 21.5 µM; in experiment [3], 17.7 µM; in experiment [4], 17 µM; in [5], 23 µM; in experiment [6], 12.9 µM. Further, the GI50 in [7] is 38.9 µM; in experiment [8] it was 22.1 µM; in experiment [9], 24.8 µM; in experiment [10] it was 25.6 µM. Also, the TGI in experiment [1] was above 100 µM; in experiment [2] it was above 100 µM; in experiment [3], 49.4 µM; in experiment [4], 44.1 µM; in [5], 63.8 µM; in experiment [6], 52.8 µM. For the same compound, the TGI in experiment [7] is above 100 µM; in [8], above 100 µM; in experiment [9] it was 81.2 µM; in [10], above 100 µM.

With `Nc1ncnc2c1ccn2C1OC2COP(=O)(O)OC2C1O` (centres undefined), the TGI in experiment [1] was 1.34 µM; in experiment [2] it was above 31 µM; in experiment [3], above 100 µM; in experiment [4], 5.02 µM; in experiment [5], 8.06 µM; in experiment [6], 10.9 µM. The TGI was above 100 µM in [7], 20.2 µM in [8], above 31.8 µM in [9] and 9.6 µM in experiment [10].

Regarding `C=C(C)[C@@H]1CC=C(CO)CC1`, the GI50 in [1], in experiment [2], in experiment [3], in [4], in [5] and in experiment [6] was above 10 µM throughout. In addition, the GI50 in [7], in experiment [8] and in experiment [10] was above 10 µM throughout. Besides, the TGI was > 10 µM and 923 µM in experiment [1]; > 10 µM and 1260 µM in [2]; > 10 µM and 806 µM in [3]; > 10 µM and 569 µM in [4]; > 10 µM and 709 µM in [5]; > 10 µM and 1050 µM in experiment [6]. In addition, the TGI in [7] is > 10 µM and 1050 µM; in experiment [8] it was > 10 µM and 440 µM; in experiment [9] it was above 10 µM; in [10], > 10 µM and 1130 µM.

The values are drawn from PubChem BioAssay (NCI).
